Reference: US20230399313A1, “BIOLOGICAL ACTIVITIES OF 5-(2-(4-(4-FLUORO-2-METHYL-1H-INDOL-5-YLOXY)-6-METHOXYQUINOLIN-7-YLOXY)ETHYL)-5-AZASPIRO[2.4]-HEPTAN-7-OL CRYSTALLINE, PHOSPHORIC ACID SALT AND ITS ENANTIOMERS” (Advenchen Pharmaceuticals, LLC, priority 2022, published 2023)
Converted amounts (≈) assume the structure as drawn.

Legend:
[1] = Stability of amorphous and crystalline form API at 60° C. (HPLC related substances); assay type: physicochemical
Method: The samples of amorphous and crystalline form API of Compound A were placed in clean containers and the environmental temperature was controlled at 60° C. The purity of amorphous (Compound A-Amp) and crystalline form (Compound A-Xln) of Compound A were tested at Day 0, Day 10 and Day 30. Samples of amorphous and crystalline form APIs were measured, and the appropriate amount of diluent was added to dissolve with sonication. The concentration was controlled at 0.2 mg/ml and the purification was determined by HPLC with UV detector at 230 nm. Results were listed in the table as follows and the fitted curve is in Drawing Sections as FIG. 6.

Water solubility = assay type: physicochemical
BEL7404 = assay: In vitro MTT (proliferation) assay; assay type: cell-based; details: Homo sapiens, BEL-7404, BEL7404 cell line, ovary (so in the source)
Method: (§1) The inhibitions of Compound A-Xln, Compound A-P-Xln and two chiral isomers (Compound R-A, Compound S-A) to cancer cell lines are tested via in vitro MTT assay. Cancer cell lines are selected from PANC-1, NCI-H157, MDA-MB-231, Hela, PC-3, BEL7404, MKN45, Ishikawa, Saos-2, SKOV3, SW579 and HCT116 cell lines. The IC50 values are in the micromole scale.
(§2) In vitro MTT (proliferation) assay was performed with compound from above examples to give following inhibition results: […]

PANC-1 = assay: In vitro MTT (proliferation) assay; assay type: cell-based; details: Homo sapiens, PANC-1 cell line, pancreas
Method: as §1, §2

MDA-MB-231 = assay: In vitro MTT (proliferation) assay; assay type: cell-based; details: Homo sapiens; MDA-MB-231 cell line, breast; MTT; read-out: MDA-MB-231 IC50
Method: as §1, §2

Ishikawa = assay: In vitro MTT (proliferation) assay; assay type: cell-based; details: Homo sapiens, Ishikawa cell line, endometrial
Method: as §1, §2

PC-3 = assay: In vitro MTT (proliferation) assay; assay type: cell-based; details: Homo sapiens, PC-3 cell line, prostate
Method: as §1, §2

MKN45 = assay: In vitro MTT (proliferation) assay; assay type: cell-based; details: Homo sapiens, MKN-45, MKN45 cell line, breast (so in the source)
Method: as §1, §2

Hela = assay: In vitro MTT (proliferation) assay; assay type: cell-based; details: Homo sapiens; Hela cell line, ovary (so in the source); MTT; read-out: Hela IC50
Method: as §1, §2

SW579 = assay: In vitro MTT (proliferation) assay; assay type: cell-based; details: SW579 cell line, thyroid
Method: as §1, §2

NCI-H157 = assay: In vitro MTT (proliferation) assay; assay type: cell-based; details: Homo sapiens, NCI-H157 cell line, lung
Method: as §1, §2

SKOV3 = assay: In vitro MTT (proliferation) assay; assay type: cell-based; details: Homo sapiens, SK-OV-3; SKOV3 cell line, ovary; MTT; read-out: SKOV3 IC50
Method: as §1, §2

Saos-2 = assay: In vitro MTT (proliferation) assay; assay type: cell-based; details: Homo sapiens, Saos-2 cell line, sarcoma
Method: as §1, §2

HCT-116 = assay: In vitro MTT (proliferation) assay; assay type: cell-based; details: Homo sapiens, HCT116 cell line, colon, MTT, read-out: HCT116 IC50
Method: as §1, §2

[2] = high temperature 60° C., 10 days
[3] = high temperature 60° C., 30 days

Compound | Maximum impurities (%) ([1]; 0 day) | Total impurities (%) ([1]; 0 day) | Maximum impurities (%) [1, 2] [%] | Total impurities (%) [1, 2] [%] | Maximum impurities (%) [1, 3] [%] | Total impurities (%) [1, 3] [%] | solubility (Water solubility) [µg/mL] | IC50 (BEL7404) [µM] | IC50 (PANC-1) [µM] | IC50 (MDA-MB-231) [µM] | IC50 (Ishikawa) [µM] | IC50 (PC-3) [µM] | IC50 (MKN45) [µM] | IC50 (Hela) [µM] | IC50 (SW579) [µM] | IC50 (NCI-H157) [µM] | IC50 (SKOV3) [µM] | IC50 (Saos-2) [µM] | IC50 (HCT-116) [µM]
COc1cc2c(Oc3ccc4[nH]c(C)cc4c3F)ccnc2cc1OCCN1CC(O)C2(CC2)C1 (stereo not shown) [Compound A-Amp, 5-(2-(4-(4-fluoro-2-methyl-1H-indol-5-yloxy)-6-methoxyquinolin-7-yloxy)ethyl)-5-azaspiro[2.4]-heptan-7-ol] | 0.075 | 0.26 | 0.191 | 0.323 | 0.327 | 0.583 | – | – | – | – | – | – | – | – | – | – | – | – | –
COc1cc2c(Oc3ccc4[nH]c(C)cc4c3F)ccnc2cc1OCCN1CC(O)C2(CC2)C1 (stereo not shown) [Compound A-P, 5-(2-(4-(4-fluoro-2-methyl-1H-indol-5-yloxy)-6-methoxyquinolin-7-yloxy)ethyl)-5-azaspiro[2.4]-heptan-7-ol] | – | – | – | – | – | – | 360 (≈ 754 µM) | – | – | – | – | – | – | – | – | – | – | – | –
COc1cc2c(Oc3ccc4[nH]c(C)cc4c3F)ccnc2cc1OCCN1CC(O)C2(CC2)C1 (stereo not shown) [Compound A-P-Xln, 5-(2-(4-(4-fluoro-2-methyl-1H-indol-5-yloxy)-6-methoxyquinolin-7-yloxy)ethyl)-5-azaspiro[2.4]-heptan-7-ol] | – | – | – | – | – | – | – | 1.75 | 2.75 | 3.93 | 1.48 | 1.77 | 0.13 | 2.36 | 0.88 | 1.61 | 3.09 | 2.48 | 0.934
COc1cc2c(Oc3ccc4[nH]c(C)cc4c3F)ccnc2cc1OCCN1C[C@H](O)C2(CC2)C1 [Compound R-A] | – | – | – | – | – | – | – | 4.06 | 5.64 | 9.6 | 4.61 | 2.75 | 0.43 | 6.69 | 0.906 | 8.11 | 3.71 | 3.08 | 0.883
COc1cc2c(Oc3ccc4[nH]c(C)cc4c3F)ccnc2cc1OCCN1C[C@@H](O)C2(CC2)C1 [Compound S-A] | – | – | – | – | – | – | – | 2.38 | 5 | 6.6 | 4.98 | 5.6 | 0.32 | 6.3 | 0.836 | 7 | 7.65 | 5.35 | 0.98
